The record followed here is PubChem BioAssay (NCI).

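Cells were grown in 96-well plates and exposed to each compound for 48 hours at five concentrations; endpoints were interpolated linearly between bracketing concentrations, or set to the highest concentration if not reached. The concentration for 50% growth inhibition is given as GI50. TGI: total growth inhibition.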

Holding throughout (assay): growth of human tumour cells (NCI), 48 h
The subject of assay [1] is T-47D breast.
The test system of assay [2] is SK-OV-3 ovarian.
The test system of assay [3] is OVCAR-5 ovarian.
In assay [4] the test system is SNB-19 CNS.
Assay [5] has as its system UACC-62 melanoma.
In assay [6] the test system is MOLT-4 leukemia.
In assay [7] the test system is M14 melanoma.
In assay [8] the test system is COLO 205 colon.
Assay [9] relates to SW-620 colon.
Assay [10] relates to RXF 393 renal.

Take `COC(=O)[C@H](Cc1c[nH]c2ccccc12)NC(=O)[C@@H](OC)[C@@H]1Cc2cc3cc(OC4CC(OC5CC(O)C(O)C(C)O5)C(O)C(C)O4)c(C)c(O)c3c(O)c2C(=O)[C@H]1OC1CC(OC2CC(OC3CC(C)(O)C(O)C(C)O3)C(O)C(C)O2)C(O)C(C)O1` (stereo partly drawn): the GI50 in assay [1] was 0.0075 µM; in assay [2] it was 0.0116 µM; in [3] it was 0.0102 µM; in [4], 0.00777 µM; in [5], 0.00361 µM; in assay [6], 0.00654 µM. Also, the GI50 in assay [7] is 0.0169 µM; in [8] it was 0.00366 µM; in assay [9], 0.00863 µM; in [10] it was 0.00833 µM. The TGI in assay [1] is above 9.76 µM; in assay [2], above 16.5 µM; in [3] it was above 16.5 µM; in assay [4] it was above 16.5 µM; in assay [5] it was 0.00983 µM; in assay [7], 0.127 µM. Besides, the TGI in [8] turned out to be 0.00882 µM; in assay [10], 0.0243 µM.

Regarding `CC[CH2][Sn]([Cl])([Cl])[CH2]CC.Oc1ccccc1C=NCCN=Cc1ccccc1O`, the GI50 in assay [1] was 1.09 µM; in [2], 17.2 µM; in assay [3], 12.9 µM; in [4] it was 12.1 µM; in [5], 5.77 µM; in [6], 4.88 µM. Besides, the GI50 is 5.49 µM in assay [7], 2.97 µM in assay [8], 1.8 µM in assay [9] and 2.41 µM in assay [10]. For the same molecule, the TGI in [1] is 2.6 µM; in assay [2], 35.1 µM; in assay [3], 26 µM; in assay [4] it was 25 µM; in [5], 19.6 µM; in [6], above 100 µM. The TGI in assay [7] worked out at 19.3 µM; in [8] it was 10.1 µM; in assay [9], 3.82 µM; in assay [10] it was 8.11 µM.

Turning to `Cc1nc(-c2ccccc2)c(-c2ccccc2)s1`, the TGI in assay [1] was above 100 µM; in [2] it was above 100 µM; in [3], above 100 µM; in assay [4] it was above 100 µM; in [5] it was 56.8 µM; in assay [6], 38.8 µM. The TGI in assay [7] came out at 41.1 µM; in assay [8] it was 38.8 µM; in assay [9], 39.6 µM; in [10], 49.8 µM.

As for `CC1(C)N=C(N)N=C(N)N1c1ccc(OCc2ccc(S(=O)(=O)F)c(Cl)c2)c(Cl)c1`, the GI50 in assay [1] is 77.7 µM; in assay [2], above 100 µM; in [3], above 100 µM; in [4], 6.76 µM; in [5] it was 0.74 µM; in assay [6] it was 3.59 µM. Also, the GI50 was 1.52 µM in [7], 5.74 µM in [8], 0.424 µM in [9] and 18.7 µM in [10]. Moreover, the TGI in assay [1], in assay [2], in assay [3], in assay [4], in assay [5] and in assay [6] was above 100 µM each time. In addition, the TGI in assay [7], in assay [8], in assay [9] and in [10] was above 100 µM each time.

Take `O=c1[nH]c(=O)n(C2OC(CO)C(O)C(O)C2O)cc1F` (stereo not drawn): the TGI in assay [1], in assay [2], in [3], in [4], in assay [5] and in assay [6] was above 100 µM throughout. The TGI in assay [7], in [8], in assay [9] and in assay [10] was above 100 µM throughout.

As for `CSc1nc2cc(S(=O)(=O)N3CCCCC3)ccc2s1`, the TGI in [1], in assay [2], in [3], in assay [4], in assay [5] and in assay [6] was above 100 µM throughout. The TGI in [7], in assay [8], in assay [9] and in [10] was above 100 µM throughout.

In the case of `O=C(O)[C@@H]1CCCCN1Cc1cc2cc3c(cc2c2cc(OCc4ccccc4)ccc12)OCO3`, the GI50 in assay [1] is 2.97 µM; in [2] it was 6.47 µM; in assay [3] it was 19.2 µM; in [4], 2.31 µM; in assay [5] it was 1.49 µM; in [6] it was 63.3 µM. Further, the GI50 was 16.5 µM in assay [7], 3.05 µM in assay [8], 1.84 µM in assay [9] and 6.05 µM in [10]. Also, the TGI was 29.5 µM in assay [1]; 34.3 µM in assay [2]; 44 µM in [3]; 8.86 µM in assay [4]; 3.08 µM in assay [5]; above 100 µM in [6]. The TGI stood at 30.4 µM in assay [7], 15.8 µM in [8], 13.8 µM in assay [9] and 22.6 µM in assay [10].

As to `CCCCCN(CCCCC)CC(O)c1ccc(Cl)c2ccccc12` (stereo not drawn), the GI50 in assay [1] was 4.93 µM; in [2] it was 13.8 µM; in assay [3], 9.41 µM; in assay [4], 12.7 µM; in assay [5], 6.25 µM; in assay [6] it was 6.69 µM. Also, the GI50 in assay [7] was 4.51 µM; in [8], 3.6 µM; in assay [9], 2.77 µM; in assay [10], 2.13 µM. Also, the TGI in assay [1] was determined as 19.4 µM; in assay [2], 37.5 µM; in [3], 22 µM; in assay [4] it was 30.1 µM; in [5] it was 22.2 µM; in assay [6], 24 µM. Further, the TGI in [7] was determined as 18.7 µM; in assay [8], 16.5 µM; in assay [9], 13.6 µM; in assay [10], 8 µM.

For `Cc1ccc2c(c1)CN(C(=O)CCC(=O)OCc1ccccc1)c1ccc(C)cc1CN2C(=O)CCC(=O)OCc1ccccc1`, the TGI in assay [1], in assay [2], in [3], in assay [4], in assay [5] and in [6] was above 100 µM each time. Further, the TGI in assay [7], in [8], in assay [9] and in assay [10] was above 100 µM in each case.
